According to US20030013660A1, “Dioxolane analogs for improved inter-cellular delivery” (Shire BioChem Inc., priority 2000, published 2003):
Where “and” joins values, the source holds several entries; their conditions need not be identical. Equal entries are not always repeated.

Legend:
MCF-7 [1] = test: 3H-TdR incorporation at 72 hr (24 hr drug exposure, wash, 48 hr); type: cell-based, Human; conditions: Homo sapiens, MCF7, read-out: IC50 in μM (3H-TdR incorporation at 72 hr) MCF-7 24 h, MCF-7 Human Breast Carcinoma, 72 hr assay
Experimental: (§1) Exposition of 24 hr to drug, wash, incubated for another 48 hr (total of 72 hr assay)
(§2) (3H-Thymidine Incorporation Assay)

CEM/dCK- [2] = test: as above; type: cell-based; conditions: for Factor* (Resistance Factor = Ratio of dCK- on Wild-type CCRF-CEM): ratio of IC50 CEM/dCK- to IC50 CCRF-CEM; for IC50: Homo sapiens, CCRF-CEM, read-out: IC50 in μM (3H-TdR incorporation at 72 hr) CEM/dCK- 24 h, CCRF-CEM deoxycytidine kinase-deficient, 24 h drug exposure, 72 hr assay
Experimental: as §1, §2

CCRF-CEM [3] = test: as above; type: cell-based; conditions: read-out: IC50 in μM (3H-TdR incorporation at 72 hr) CCRF-CEM 24 h, CCRF-CEM T-cell Leukemia, 72 hr assay
Experimental: as §1, §2

CEM/dCK- [4] = test: MTT or WST-1 assay at 72 hr (24 hr drug exposure, wash, 48 hr); type: cell-based
Experimental: (§3) Exposition of 24hr to drug, washed, and incubated for another 48hr (total of 72hr assay)

CCRF-CEM [5] = test: as above; type: cell-based
Experimental: as §3

H-460 [6] = test: MTT assay at 72 hr (24 hr drug exposure, wash, 48 hr); type: cell-based
Experimental: as §3

CEM/dCK- [7] = test: 3H-TdR (3H-thymidine) incorporation assay at 72 hr; type: cell-based
Experimental: (§4) Table of IC50 Values (μM) for Controls
as §1, §2

CCRF-CEM [8] = test: 3H-TdR (3H-thymidine) incorporation assay at 72 hr; type: cell-based; conditions: Homo sapiens, CCRF-CEM, read-out: IC50 CCRF-CEM 24 h, 24 h drug exposure, wash, another 48 hr; 3H-TdR incorporation at 72 hr
Experimental: as §4, §1, §2

H-460 [9] = test: 3H-TdR (3H-thymidine) incorporation assay at 72 hr; type: cell-based, Human; conditions: Homo sapiens, NCI-H460, read-out: IC50 H-460 24 h, 24 h drug exposure, wash, another 48 hr; 3H-TdR incorporation at 72 hr
MCF-7 [10] = test: 3H-TdR (3H-thymidine) incorporation assay at 72 hr; type: cell-based, Human; conditions: Homo sapiens, MCF7, read-out: IC50 MCF-7 24 h, 24 h drug exposure, wash, another 48 hr; 3H-TdR incorporation at 72 hr
SF-268 [11] = test: 3H-TdR (3H-thymidine) incorporation assay at 72 hr; type: cell-based, Human; conditions: Homo sapiens, SF-268, read-out: IC50 SF-268 24 h, 24 h drug exposure, wash, another 48 hr; 3H-TdR incorporation at 72 hr
SF-268 [12] = test: 3H-TdR incorporation at 72 hr (24 hr drug exposure, wash, 48 hr); type: cell-based, Human; conditions: Homo sapiens, SF-268, read-out: IC50 in μM (3H-TdR incorporation at 72 hr) SF-268 24 h, SF-268 Human Central Nervous System Tumor; 24 h drug exposure, 72 hr assay
Experimental: as §1, §2

H-460 [13] = test: as above; type: cell-based, Human; conditions: Homo sapiens, NCI-H460, read-out: IC50 in μM (3H-TdR incorporation at 72 hr) H-460 24 h, H-460 Human Lung Carcinoma, 72 hr assay
Experimental: as §1, §2

[14] = read-out: IC50 CEM/dCK- 24 h, MMT or WST-1 at 72 hr, 24 h exposure, single experiment
[15] = read-out: IC50 CEM/dCK- 24 h; MMT or WST-1 at 72 hr, 24 h exposure, single experiment
[16] = Homo sapiens, CCRF-CEM, read-out: IC50 CCRF-CEM 24 h, MMT or WST-1 at 72 hr, 24 h exposure, single experiment
[17] = Homo sapiens, NCI-H460, read-out: IC50 H-460 24 h, MTT at 72 hr, 24 h exposure, single experiment
[18] = read-out: IC50 H-460 24 h, MTT at 72 hr, 24 h exposure, single experiment
[19] = read-out: IC50 CCRF-CEM 24 h, MMT or WST-1 at 72 hr, 24 h exposure, single experiment

Structure (SMILES) | IC50 (MCF-7 [1]) [µM] | Factor* (Resistance Factor = Ratio of dCK- on Wild-type CCRF-CEM) (CEM/dCK- [2]) | IC50 (CCRF-CEM [3]; Homo sapiens, CCRF-CEM) [nM] | IC50 (CEM/dCK- [4]; [14]) [nM] | IC50 (CEM/dCK- [4]; [15]) | IC50 (CCRF-CEM [5]; [16]) [nM] | IC50 (SF-268 [12]) [µM] | IC50 (H-460 [13]) [µM] | IC50 (CEM/dCK- [2]) [µM] | other results
CC(=O)Oc1ccc(COC(=O)Nc2ccn([C@@H]3CO[C@H](COC(=O)OCc4ccc(OC(C)=O)cc4)O3)c(=O)n2)cc1 [Compound 202, Acetic acid 4-(1-{2-[4-(Acetyloxy)benzyloxycarbonyloxymethyl]-[1,3]dioxolan-4-yl}2-oxo-1,2-dihydropyrimidin-4-ylcarbamoyloxymethyl)-phenyl Ester] | < 0.0001 | >1000 | < 0.1 | 50 | > 100 nM | 14 |  |  |  | Resistance Factor* (CEM/dCK- [4]; CEM/dCK- versus CCRF-CEM, single experiment): >7
CCCCCCCCCCCC(=O)Nc1ccn([C@@H]2CO[C@H](CO)O2)c(=O)n1 [Compound 208, DODECANOIC ACID [1-(2- HYDROXYMETHYL- [1,3]DIOXOLAN-4-YL)-2- OXO-1,2-DIHYDRO- PYRIMIDIN-4-YL]-AMIDE] |  |  | < 0.1 |  |  |  |  |  |  | IC50 (H-460 [6]; [17]): 110 nM; IC50 (H-460 [6]; [18]): 200 nM; IC50 (CCRF-CEM [3]): 0.052 nM
Nc1ccn([C@@H]2CO[C@H](COC(=O)C34CC5CC(CC(C5)C3)C4)O2)c(=O)n1 [Compound 110, ADAMANTANE-1-CARBOXYLIC ACID 4-(4-AMINO-2-OXO- 2H-PYRIMIDIN-1-YL)- [1,3]DIOXOLAN-2- YLMETHYL ESTER] |  |  |  |  |  | 3.4 |  |  |  | IC50 (CEM/dCK- [7]; Homo sapiens, CCRF-CEM, read-out: IC50 CEM/dCK- 24 h, 24 h drug exposure, wash, another 48 hr, deoxycytidine kinase-deficient CCRF-CEM): 4300 nM; Factor* (Resistance Factor = Ratio of dCK- on Wild-type CCRF-CEM) (CEM/dCK- [7]; ratio of IC50 CEM/dCK- to CCRF-CEM, 24 h): 3307; IC50 (CCRF-CEM [8]): 1.3 nM; IC50 (H-460 [9]): 1 nM; IC50 (CCRF-CEM [5]; [19]): 2.5 nM and 4 nM; IC50 (MCF-7 [10]): 10 nM; IC50 (SF-268 [11]): 4.9 nM
CCCCCCCC/C=C\CCCCCCCC(=O)Nc1ccn([C@@H]2CO[C@H](CO)O2)c(=O)n1 [Compound 219, OCTADEC-9-ENOIC ACID [1-(2-HYDROXYMETHYL- [1,3]DIOXOLAN-4-YL)-2- OXO-1,2-DIHYDRO- PYRIMIDIN-4-YL]-AMIDE] | ≤ 0.0001 |  |  |  |  | 18 | 0.00012 | ≤ 0.0001 | 2.1 | IC50 (CCRF-CEM [5]; [19]): 10 nM
CCC(CCCCCCc1ccccc1)C(=O)OC[C@H]1OC[C@@H](n2ccc(N)nc2=O)O1 (some centres unmarked) [Compound 266, 2-ETHYL-8-PHENYL- OCTANOIC ACID 4-(4- AMINO-2-OXO-2H- PYRIMIDIN-1-YL)- [1,3]DIOXOLAN-2- YLMETHYL ESTER] |  |  |  | 21000 | 26000 nM |  |  |  |  | 
CC(C)(C)c1cc(C(=O)OC[C@H]2OC[C@@H](n3ccc(N)nc3=O)O2)cc(C(C)(C)C)c1 [Compound 186, 3,5-DI-TERT-BUTYL- BENZOIC ACID 4-(4- AMINO-2-OXO-2H- PYRIMIDIN-1-YL)- [1,3]DIOXOLAN-2- YLMETHYL ESTER] |  |  |  | 26000 | 14000 nM |  |  |  | > 100 | 
CCCCC[C@H]1CC[C@H](C(=O)Nc2ccn([C@@H]3CO[C@H](CO)O3)c(=O)n2)CC1 [Compound 239, 4-PENTYL- CYCLOHEXANECARBOXYLIC ACID [1-(2- HYDROXYMETHYL- [1,3]DIOXOLAN-4-YL)-2- OXO-1,2-DIHYDRO- PYRIMIDIN-4-YL]-AMIDE] | 0.00033 | 6667 | 3 | 20000 | 28000 nM and 17000 nM |  | 0.19 | 0.0065 | 20 | IC50 (H-460 [6]; [18]): 200 nM
CC(C)(C)OC(=O)NCCCCCC(=O)Nc1ccn([C@@H]2CO[C@H](COC(=O)CCCCCNC(=O)OC(C)(C)C)O2)c(=O)n1 [Compound 192, 6-TERT!- BUTOXYCARBONYLAMINO- HEXANOIC ACID 4-[4-(6- TERT- BUTOXYCARBONYLAMINO- HEXANOYLAMINO)-2-OXO- 2H-PYRIMIDIN-1-YL]- [1,3]DIOXOLAN-2-YL METHYL ESTER] | 0.0016 | 5,714 | 8.4 |  |  |  | 0.4 | 0.29 | 48 | 
CC(CCCCCCc1ccccc1)C(=O)Nc1ccn([C@@H]2CO[C@H](CO)O2)c(=O)n1 (some centres unmarked) [Compound 247, 2-Methyl-8-phenyl-octanoic acid [1-(2-hydroxymethyl-[1,3]dioxolan-4-yl)-2-oxo-1,2-dihydro-pyrimidin-4-yl]-amide] | 0.00078 | 150 | 100 | 61000 | 49000 nM |  | 0.13 | 0.13 | 15 | IC50 (H-460 [6]; [17]): 390 nM; IC50 (H-460 [6]; [18]): 540 nM and 460 nM
O=C(CCCCCCCc1ccccc1)Nc1ccn([C@@H]2CO[C@H](COC(=O)CCCCCCCc3ccccc3)O2)c(=O)n1 [Compound 196, 8-PHENYL-OCTANOIC ACID 4-[2-OXO-4-(8-PHENYL- OCTANOYLAMINO)-2H- PYRIMIDIN-1-YL]- [1,3]DIOXOLAN-2-YL METHYL ESTER] | < 0.0001 |  |  |  |  | 10 | < 0.0001 | < 0.0001 |  | 
CC(C)(C)C(CCCCCCc1ccccc1)C(=O)OC[C@H]1OC[C@@H](n2ccc(N)nc2=O)O1 (some centres unmarked) [Compound 256, 2-tert-Butyl-8-phenyl-octanoic acid 4-(4-amino-2-oxo-2H-pyrimidin-1-yl)-[1,3]dioxolan-2-yl methyl ester] | 5.1 | 4 | 5300 |  |  |  | 14 | 4.6 | 20 | 
O=C(Nc1ccn([C@@H]2CO[C@H](CO)O2)c(=O)n1)C(c1ccccc1)c1ccccc1 [Compound 241, N-[1-(2-HYDROXYMETHYL- [1,3]DIOXOLAN-4-YL)-2- OXO-1,2-DIHYDRO- PYRIMIDIN-4-YL]-2,2- DIPHENYL-ACETAMIDE] | 0.17 | ≧74 | 1400 |  |  |  | 14 | 0.047 | ≥ 100 | 
Cl.Nc1ccn([C@@H]2CO[C@H](COC(=O)OCc3ccc([N+](=O)[O-])cc3)O2)c(=O)n1 [Compound 183, CARBONIC ACID 4-(4- AMINO-2-OXO-2H- PYRIMIDIN-1-YL)- [1,3]DIOXOLAN-2- YLMETHYL ESTER 4-NITRO- BENZYL ESTER HYDROCHLORIDE SALT] | 0.038 | 2,500 | 18 |  |  |  | 0.12 | 0.037 | 45 | 
